Earlier results as cited in patent publication US9199951B2, “Process for the manufacture of a 1,2-epoxide” (Hexion Inc., priority 2008, dated 2015).
Converted amounts (≈) assume the structure as drawn.

Settings: grams per liter water at 20° C.; for Solubility in water: terminal olefins of Table 2

**Q.** For `C=CCCCCCC` [1-octene], which Solubility in water is on record?
**A.** 0.00027 mg/mL (≈ 2.41 µM)

**Q.** For `C=CCOC(C)=O` [Allyl acetate], which solubility is on record?
**A.** about 10 g/L

**Q.** What about the Solubility in water of the same molecule?
**A.** ~10 mg/mL

**Q.** For `C=CCO` [Allyl alcohol], which Solubility in water is on record?
**A.** miscible

**Q.** With `C=CCCl` [Allyl chloride] as the molecule, how does the solubility read?
**A.** 3.6 mg/mL

**Q.** And the Solubility in water?
**A.** 3.6 mg/mL

**Q.** For `C=CCBr` [allyl bromide], which solubility is on record?
**A.** 4 mg/mL
